Laboratory results taken from article PMC3196344 (Nature medicine, 2009).

Experiments:
[1] = test system: CD4+/CD8+ thymocytes; test: Flow cytometry of thymocytes from dex-treated mice; assay type: in vivo, BALB/c mice; details: measured by a drop in this cell population over time; dex 50 mg/kg IP
[2] = test system: thymocytes; details: after dex treatment; cited from earlier work
[3] = exposed during late stages of apoptosis; cited from earlier work
[4] = leading to high background signals; cited from earlier work
[5] = test system: caspase-3/7; test: Caspase labeling in COLO205 tumors of Apomab-treated mice, SDS-PAGE; assay type: in vivo, human colorectal cancer COLO205 xenograft in nude mice; details: Apomab 10 mg/kg IV; AB50-Cy5 50 nmol IV 1 h; COLO205 xenograft
[6] = test system: legumain; test: Legumain labeling in COLO205 tumors of Apomab-treated mice, SDS-PAGE; assay type: in vivo, human colorectal cancer COLO205 xenograft in nude mice; details: Apomab 10 mg/kg IV; AB50-Cy5
[7] = test system: caspases-3/7; details: cited from earlier work
[8] = test system: cathepsins; details: cited from earlier work
[9] = test system: legumain; details: cited from earlier work

Compound: C[C@@H]1C[C@H]2[C@@H]3CCC4=CC(=O)C=C[C@]4(C)[C@@]3(F)[C@@H](O)C[C@]2(C)[C@@]1(O)C(=O)CO [dexamethasone]
- induction of apoptosis in CD4+/CD8+ cells [1]: specifically induced apoptosis in CD4+/CD8+ cells
- TUNEL+ staining at 18 and 24 hours [2]: sharp decrease

Compound: Annexin V: protein with high affinity for phosphatidylserines exposed during the late stages of apoptosis
- affinity for phosphatidylserines [3]: high affinity
- clearance in vivo [4]: slow clearance in vivo

Compound: Apomab: monoclonal antibody that induces the extrinsic apoptosis pathway by binding to death receptor 5
- time of optimal (peak) caspase activity after Apomab [5]: 12 h
- legumain labeling over time course after Apomab [6]: constant throughout the time course

Compound: Asp-Glu-Val-Asp [DEVD]
- recognition by caspases-3/7 [7]: optimal
- recognition by cathepsins [8]: efficiently recognized
- recognition by legumain [9]: efficiently recognized
